From the CheMixHub viscosity set
± gives the uncertainty stated by the source.

Test: xn = mol fraction of the nth substance listed

ClC(Cl)(Cl)Cl + c1ccccc1
Settings	viscosity [mPa·s]
293.25 K, 101 kPa, x1 = 0.4	0.8063 ± 0.021
293.25 K, 101 kPa, x1 = 0.5	0.8381 ± 0.022
293.25 K, 101 kPa, x1 = 0.8	0.943 ± 0.025
293.35 K, 101 kPa, x1 = 0.2	0.7416 ± 0.02
298 K, 101 kPa, x1 = 0.1367	0.64 ± 0.018
298 K, 101 kPa, x1 = 0.1809	0.653 ± 0.018
298 K, 101 kPa, x1 = 0.2176	0.664 ± 0.018
298 K, 101 kPa, x1 = 0.2521	0.672 ± 0.018
298 K, 101 kPa, x1 = 0.2882	0.68 ± 0.018
298 K, 101 kPa, x1 = 0.3188	0.688 ± 0.018
298 K, 101 kPa, x1 = 0.3463	0.697 ± 0.018
298 K, 101 kPa, x2 = 0.189	0.8814 ± 0.012
298 K, 101 kPa, x2 = 0.2701	0.8626 ± 0.012
298 K, 101 kPa, x2 = 0.344	0.845 ± 0.011
298 K, 101 kPa, x2 = 0.4734	0.8084 ± 0.011
298 K, 101 kPa, x2 = 0.583	0.7751 ± 0.011
298 K, 101 kPa, x2 = 0.6318	0.7601 ± 0.01
298 K, 101 kPa, x2 = 0.6771	0.7455 ± 0.01
298 K, 101 kPa, x2 = 0.7194	0.7309 ± 0.01
298 K, 101 kPa, x2 = 0.7588	0.7176 ± 0.01
298 K, 101 kPa, x2 = 0.8303	0.6917 ± 0.0097
298 K, 101 kPa, x2 = 0.8935	0.667 ± 0.0094
298 K, 101 kPa, x2 = 0.9224	0.6567 ± 0.0092
298 K, 101 kPa, x2 = 0.9497	0.6424 ± 0.0091
298 K, 101.3 kPa, x1 = 0.1472	0.655 ± 0.007
298 K, 101.3 kPa, x1 = 0.2844	0.69 ± 0.007
298 K, 101.3 kPa, x1 = 0.4778	0.744 ± 0.007
298 K, 101.3 kPa, x1 = 0.6302	0.79 ± 0.008
298 K, 101.3 kPa, x1 = 0.8302	0.842 ± 0.008
298.15 K, 101 kPa, x1 = 0.0951	0.6268 ± 0.0054
298.15 K, 101 kPa, x1 = 0.169	0.6474 ± 0.0056
298.15 K, 101 kPa, x1 = 0.2348	0.6652 ± 0.017
298.15 K, 101 kPa, x1 = 0.2559	0.6726 ± 0.0058
298.15 K, 101 kPa, x1 = 0.3734	0.7073 ± 0.0061
298.15 K, 101 kPa, x1 = 0.4835	0.7352 ± 0.019
298.15 K, 101 kPa, x1 = 0.4917	0.7429 ± 0.0063
298.15 K, 101 kPa, x1 = 0.5951	0.7742 ± 0.0066
298.15 K, 101 kPa, x1 = 0.6135	0.7803 ± 0.0066
298.15 K, 101 kPa, x1 = 0.7561	0.8236 ± 0.007
298.15 K, 101 kPa, x1 = 0.7767	0.8291 ± 0.021
298.15 K, 101 kPa, x1 = 0.9264	0.8783 ± 0.0074
298.15 K, 101 kPa, x2 = 0.1022	0.8965 ± 0.0088
298.15 K, 101 kPa, x2 = 0.2	0.832 ± 0.0083
298.15 K, 101 kPa, x2 = 0.2062	0.8621 ± 0.0086
298.15 K, 101 kPa, x2 = 0.2386	0.808 ± 0.01
298.15 K, 101 kPa, x2 = 0.3055	0.8356 ± 0.0084
298.15 K, 101 kPa, x2 = 0.4	0.773 ± 0.0078
298.15 K, 101 kPa, x2 = 0.4022	0.8053 ± 0.0082
298.15 K, 101 kPa, x2 = 0.5051	0.7709 ± 0.008
298.15 K, 101 kPa, x2 = 0.5755	0.706 ± 0.009
298.15 K, 101 kPa, x2 = 0.6	0.714 ± 0.0072
298.15 K, 101 kPa, x2 = 0.604	0.7357 ± 0.0078
298.15 K, 101 kPa, x2 = 0.7006	0.7062 ± 0.0076
298.15 K, 101 kPa, x2 = 0.736	0.66 ± 0.009
298.15 K, 101 kPa, x2 = 0.8	0.658 ± 0.0067
298.15 K, 101 kPa, x2 = 0.8004	0.6785 ± 0.0075
298.15 K, 101 kPa, x2 = 0.8991	0.6415 ± 0.0073
298.15 K, 101.33 kPa, x1 = 0.125	0.6346 ± 0.017
298.15 K, 101.33 kPa, x1 = 0.2348	0.6652 ± 0.017
298.15 K, 101.33 kPa, x1 = 0.4835	0.7352 ± 0.019
298.15 K, 101.33 kPa, x1 = 0.5	0.7404 ± 0.019
298.15 K, 101.33 kPa, x1 = 0.65	0.7872 ± 0.021
298.15 K, 101.33 kPa, x1 = 0.7767	0.8291 ± 0.022
298.15 K, 101.33 kPa, x1 = 0.9	0.8691 ± 0.023
302.65 K, 101 kPa, x1 = 0.4	0.707 ± 0.019
302.65 K, 101 kPa, x1 = 0.5	0.7278 ± 0.019
303.15 K, 101 kPa, x2 = 0.1022	0.8407 ± 0.0084
303.15 K, 101 kPa, x2 = 0.2062	0.8084 ± 0.0082
303.15 K, 101 kPa, x2 = 0.3055	0.7825 ± 0.0081
303.15 K, 101 kPa, x2 = 0.4022	0.7545 ± 0.0079
303.15 K, 101 kPa, x2 = 0.5051	0.7209 ± 0.0077
303.15 K, 101 kPa, x2 = 0.604	0.688 ± 0.0076
303.15 K, 101 kPa, x2 = 0.7006	0.6616 ± 0.0074
303.15 K, 101 kPa, x2 = 0.8004	0.6348 ± 0.0073
303.15 K, 101 kPa, x2 = 0.8991	0.6047 ± 0.0071
303.25 K, 101 kPa, x1 = 0.8	0.8132 ± 0.022
303.35 K, 101 kPa, x1 = 0.6	0.7543 ± 0.02
303.65 K, 101 kPa, x1 = 0.2	0.6404 ± 0.017
308 K, 101 kPa, x2 = 0.189	0.7518 ± 0.01
308 K, 101 kPa, x2 = 0.2701	0.7355 ± 0.01
308 K, 101 kPa, x2 = 0.344	0.7202 ± 0.01
308 K, 101 kPa, x2 = 0.4734	0.6919 ± 0.0097
308 K, 101 kPa, x2 = 0.583	0.6652 ± 0.0094
308 K, 101 kPa, x2 = 0.6318	0.6524 ± 0.0092
308 K, 101 kPa, x2 = 0.6771	0.6391 ± 0.009
308 K, 101 kPa, x2 = 0.7194	0.627 ± 0.0089
308 K, 101 kPa, x2 = 0.7588	0.6159 ± 0.0088
308 K, 101 kPa, x2 = 0.8303	0.5939 ± 0.0085
308 K, 101 kPa, x2 = 0.8935	0.5753 ± 0.0083
308 K, 101 kPa, x2 = 0.9224	0.5661 ± 0.0082
308 K, 101 kPa, x2 = 0.9497	0.5573 ± 0.0081
308.15 K, 101 kPa, x2 = 0.1022	0.7881 ± 0.0081
308.15 K, 101 kPa, x2 = 0.2062	0.758 ± 0.0079
308.15 K, 101 kPa, x2 = 0.3055	0.732 ± 0.0078
308.15 K, 101 kPa, x2 = 0.4022	0.7062 ± 0.0077
308.15 K, 101 kPa, x2 = 0.5051	0.6748 ± 0.0075
308.15 K, 101 kPa, x2 = 0.604	0.6434 ± 0.0073
308.15 K, 101 kPa, x2 = 0.7006	0.62 ± 0.0072
308.15 K, 101 kPa, x2 = 0.8004	0.5929 ± 0.007
308.15 K, 101 kPa, x2 = 0.8991	0.5655 ± 0.0069
312.15 K, 101 kPa, x1 = 0.5	0.6431 ± 0.017
312.35 K, 101 kPa, x1 = 0.4	0.6172 ± 0.016
312.35 K, 101 kPa, x1 = 0.6	0.6695 ± 0.018
312.35 K, 101 kPa, x1 = 0.8	0.7173 ± 0.019
312.65 K, 101 kPa, x1 = 0.2	0.5692 ± 0.015
313.15 K, 101 kPa, x2 = 0.1022	0.7415 ± 0.0078
313.15 K, 101 kPa, x2 = 0.2062	0.7096 ± 0.0077
313.15 K, 101 kPa, x2 = 0.3055	0.6862 ± 0.0076
313.15 K, 101 kPa, x2 = 0.4022	0.659 ± 0.0074
313.15 K, 101 kPa, x2 = 0.5051	0.6313 ± 0.0073
313.15 K, 101 kPa, x2 = 0.604	0.6024 ± 0.0071
313.15 K, 101 kPa, x2 = 0.7006	0.58 ± 0.007
313.15 K, 101 kPa, x2 = 0.8004	0.5544 ± 0.0068
313.15 K, 101 kPa, x2 = 0.8991	0.5291 ± 0.0067
318 K, 101 kPa, x2 = 0.189	0.6483 ± 0.0092
318 K, 101 kPa, x2 = 0.2701	0.6346 ± 0.009
318 K, 101 kPa, x2 = 0.344	0.6217 ± 0.0088
318 K, 101 kPa, x2 = 0.4734	0.599 ± 0.0086
318 K, 101 kPa, x2 = 0.583	0.5775 ± 0.0083
318 K, 101 kPa, x2 = 0.6318	0.5665 ± 0.0082
318 K, 101 kPa, x2 = 0.6771	0.5566 ± 0.0081
318 K, 101 kPa, x2 = 0.7194	0.5469 ± 0.008
318 K, 101 kPa, x2 = 0.7588	0.5373 ± 0.0078
318 K, 101 kPa, x2 = 0.8303	0.5209 ± 0.0076
318 K, 101 kPa, x2 = 0.8935	0.5053 ± 0.0075
318 K, 101 kPa, x2 = 0.9224	0.4992 ± 0.0074
318 K, 101 kPa, x2 = 0.9497	0.492 ± 0.0073
318 K, 101.3 kPa, x1 = 0.1399	0.5125 ± 0.02
318 K, 101.3 kPa, x1 = 0.2838	0.5478 ± 0.021
318 K, 101.3 kPa, x1 = 0.4793	0.6011 ± 0.023
318 K, 101.3 kPa, x1 = 0.6289	0.6411 ± 0.024
318 K, 101.3 kPa, x1 = 0.8405	0.6993 ± 0.026
322.25 K, 101 kPa, x1 = 0.2	0.5085 ± 0.014
